From patent US20250171447A1, “ADENOSINE RECEPTOR ANTAGONISTS, PHARMACEUTICAL COMPOSITIONS AND THEIR USE THEREOF” (Merck Sharp & Dohme LLC, priority 2022, published 2025) come the findings set out here.

The target in assay [1] is human A2A adenosine receptor (Homo sapiens (Human), UniProt P29274). In words: A2A receptor affinity binding assay (radioligand filtration binding or SPA, [3H]SCH58261). As to conditions: membranes from HEK293 or CHO cells expressing human A2A; Method (A) filtration or Method (B) SPA.
Sequence of human A2A adenosine receptor (P29274 whole entry): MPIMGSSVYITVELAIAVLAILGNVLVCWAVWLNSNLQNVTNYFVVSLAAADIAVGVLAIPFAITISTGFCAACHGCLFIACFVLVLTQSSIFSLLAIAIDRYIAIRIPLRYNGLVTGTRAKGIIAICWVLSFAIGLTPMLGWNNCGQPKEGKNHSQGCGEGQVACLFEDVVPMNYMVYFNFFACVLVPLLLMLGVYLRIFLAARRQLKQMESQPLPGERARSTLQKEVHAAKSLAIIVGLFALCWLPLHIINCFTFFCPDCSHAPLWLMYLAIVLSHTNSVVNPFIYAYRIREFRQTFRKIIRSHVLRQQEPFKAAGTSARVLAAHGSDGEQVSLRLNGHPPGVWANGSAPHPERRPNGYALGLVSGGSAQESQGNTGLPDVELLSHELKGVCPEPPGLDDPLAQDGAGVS
Assay [2] concerns the target human A2B adenosine receptor (Homo sapiens (Human), UniProt P29275). Kind of assay: A2B binding affinity radioligand filtration binding assay. As to conditions: membranes from HEK293 cells expressing human A2B; tritiated proprietary A2B antagonist.

Sequence of human A2B adenosine receptor (P29275 whole entry): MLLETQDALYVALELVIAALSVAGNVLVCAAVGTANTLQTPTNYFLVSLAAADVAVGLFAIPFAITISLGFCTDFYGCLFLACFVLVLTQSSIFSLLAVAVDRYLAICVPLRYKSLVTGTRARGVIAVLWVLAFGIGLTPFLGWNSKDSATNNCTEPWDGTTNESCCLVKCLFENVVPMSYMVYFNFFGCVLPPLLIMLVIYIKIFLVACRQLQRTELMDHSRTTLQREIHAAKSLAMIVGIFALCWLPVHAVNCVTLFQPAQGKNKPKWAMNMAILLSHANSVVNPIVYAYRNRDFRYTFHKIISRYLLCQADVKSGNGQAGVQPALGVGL

Regarding `COc1cccc2c1nc(N)n1nc(C3CC3c3cnn(C)c3)nc21` (stereo not shown) [Ex-27, 7-methoxy-2-[2-(1-methyl-1H-pyrazol-4-yl)cyclopropyl][1,2,4] triazolo[1,5-c] quinazolin-5-amine], the IC50 amounted to 97.4 nM in assay [1] and 864 nM in assay [2].
For `COc1cccc2c1nc(N)n1nc(C3(CO)CC3)nc21` [Ex-30, [1-(5-amino-7-methoxy[1,2,4]triazolo [1,5-c]quinazolin-2-yl)cyclopropyl]methanol], in that order: 43 nM and 906 nM.
As to `COc1cccc2c1nc(N)n1nc([C@H]3C[C@@H](c4cccc(C(C)(C)O)c4)C3)nc21` [Ex-47, 2-{3-[cis-3-(5-amino-7-methoxy [1,2,4]triazolo [1,5-c]quinazolin-2-yl)cyclobutyl]phenyl} propan-2-ol], the IC50 in assay [1] amounted to 9.8 nM; in assay [2], 10.6 nM.
For `COc1cccc2c1nc(N)n1nc(C3CC3c3ccc4cnn(C)c4c3)nc21` (stereo not shown) [Ex-21, 7-methoxy-2-[2-(1-methyl-1H-indazol-6-yl)cyclopropyl][1,2,4] triazolo[1,5-c] quinazolin-5-amine], in that order: 6.9 nM and 104 nM.
The like results for `COc1cccc2c1nc(N)n1nc(C3CC3Cc3ccc(F)cc3)nc21` (stereo not shown) [Ex-40, 2-(2-(4-fluorobenzyl)cyclopropyl)-7-methoxy-[1,2,4]triazolo[1,5-c]quinazolin-5-amine] were, in that order, 1.4 nM and 7.6 nM.
For `COc1cccc2c1nc(N)n1nc(C3CC3c3cccc4c3CNC4=O)nc21` (stereo not shown) [Ex-20, 4-[2-(5-amino-7-methoxy[1,2,4]triazolo [1,5-c]quinazolin-2-yl)cyclopropyl]-2,3-dihydro-1H-isoindol-1-one], the half-inhibitory concentration (IC50) was 6.5 nM in assay [1] and 395 nM in assay [2].
The like results for `COc1cccc2c1nc(N)n1nc(C3CC3c3ccc(C(N)=O)c(F)c3)nc21` (stereo not shown) [Ex-17, 4-[2-(5-amino-7-methoxy[1,2,4]triazolo [1,5-c]quinazolin-2-yl)cyclopropyl]-2-fluorobenzamide] were, in that order, 4.1 nM and 40.7 nM.
The like results for `COc1cccc2c1nc(N)n1nc([C@@H]3C[C@H]3c3cnn(C)c3)nc21` [Ex-2, 7-methoxy-2-((1r,2r)-2-(1-methyl-1H-pyrazol-4-yl)cyclopropyl)-[1,2,4]triazolo[1,5-c]quinazolin-5-amine] were, in that order, 2.6 nM and 50.4 nM.
The like results for `COc1cc(F)cc2c1nc(N)n1nc(C3CC(c4ccc(C(C)(C)N)cn4)C3)nc21` (stereo not shown) [Ex-69, 2-{3-[5-(2-aminopropan-2-yl)pyridin-2-yl]cyclobutyl}-9-fluoro-7-methoxy[1,2,4]triazolo[1,5-c]quinazolin-5-amine] were, in that order, 6.2 nM and 0.3 nM.
In the case of `COc1cccc2c1nc(N)n1nc(C3(c4ccccc4)CC3)nc21` [Ex-37, 7-methoxy-2-(1-phenylcyclopropyl) [1,2,4]triazolo[1,5-c] quinazolin-5-amine], the IC50 in assay [1] is 17.7 nM; in assay [2], 1980 nM.
Turning to `COc1cccc2c1nc(N)n1nc([C@H]3C[C@H](c4ccc(C(C)(C)N)cn4)C3)nc21` [Ex-68, 2-((1r,3r)-3-(5-(2-aminopropan-2-yl)pyridin-2-yl)cyclobutyl)-7-methoxy-[1,2,4]triazolo[1,5-c]quinazolin-5-amine], the IC50 in assay [1] was found to be 2 nM; in assay [2], 2.2 nM.
With `COc1cccc2c1nc(N)n1nc([C@H]3C[C@@](N)(c4ccc(C(C)(C)O)cn4)C3)nc21` [Ex-138, 2-(6-((l1,3r)-1-amino-3-(5-amino-7-methoxy-[1,2,4]triazolo[1,5-c]quinazolin-2-yl)cyclobutyl)pyridin-3-yl)propan-2-ol], the IC50 in assay [1] is 9.8 nM; in assay [2], 12.5 nM.
For `COc1cccc2c1nc(N)n1nc([C@H]3C[C@H](c4cccc(C(C)(C)O)c4)C3)nc21` [Ex-46, 2-{3-[trans-3-(5-amino-7-methoxy [1,2,4]triazolo [1,5-c]quinazolin-2-yl)cyclobutyl]phenyl} propan-2-ol], in that order: 18.3 nM and 69 nM.
The like results for `COc1cccc2c1nc(N)n1nc(C3CC3c3ccccc3[C@H](C)O)nc21` (stereo partly drawn) [Ex-15, (1S)-1-{2-[2-(5-amino-7-methoxy[1,2,4]triazolo [1,5-c]quinazolin-2-yl)cyclopropyl]phenyl} ethan-1-ol] were, in that order, 3.4 nM and 1840 nM.
For the compound `COc1cccc2c1nc(N)n1nc(C3CC3c3ccc4c(c3)C(=O)NC4)nc21` (stereo not shown) [Ex-6, 6-[2-(5-amino-7-methoxy[1,2,4]triazolo [1,5-c]quinazolin-2-yl)cyclopropyl]-2,3-dihydro-1H-isoindol-1-one], the IC50 came out at 0.9 nM in assay [1] and 13.2 nM in assay [2].
For `COc1cccc2c1nc(N)n1nc([C@H]3C[C@@H](c4ccccc4)C3)nc21` [Ex-135, 7-methoxy-2-((1s,3s)-3-phenylcyclobutyl)-[1,2,4]triazolo[1,5-c]quinazolin-5-amine], in that order: 7.3 nM and 35.3 nM.
The like results for `COc1cccc2c1nc(N)n1nc(C3CC3c3c[nH]nc3C(F)(F)F)nc21` (stereo not shown) [Ex-25, 7-methoxy-2-{2-[3-(trifluoromethyl)-1H-pyrazol-4-yl]cyclopropyl} [1,2,4] triazolo[1,5-c] quinazolin-5-amine] were, in that order, 9.9 nM and 96.3 nM.
For the compound `COc1cccc2c1nc(N)n1nc([C@H]3C[C@@](O)(c4ccc(C(C)(C)O)cn4)C3)nc21` [Ex-137, (1r,3r)-3-(5-amino-7-methoxy-[1,2,4]triazolo[1,5-c]quinazolin-2-yl)-1-(5-(2-hydroxypropan-2-yl)pyridin-2-yl)cyclobutan-1-ol], the IC50 in assay [1] is 4 nM; in assay [2], 2.1 nM.
The like results for `COc1cccc2c1nc(N)n1nc(C3CC3c3ccc4c(c3)NCCO4)nc21` (stereo not shown) [Ex-24, 2-[2-(3,4-dihydro-2H-1,4-benzoxazin-6-yl)cyclopropy1]-7-methoxy[1,2,4]triazolo [1,5-c]quinazolin-5-amine] were, in that order, 9 nM and 42.6 nM.
With `COc1cccc2c1nc(N)n1nc([C@H]3C[C@H](c4ccccc4)C3)nc21` [Ex-136, 7-methoxy-2-((1r,3r)-3-phenylcyclobutyl)-[1,2,4]triazolo[1,5-c]quinazolin-5-amine], the IC50 came out at 2.2 nM in assay [1] and 116 nM in assay [2].
For `COc1cccc2c1nc(N)n1nc(C3CC3c3cn4ccnc4cc3C)nc21` (stereo not shown) [Ex-7], in that order: 1.3 nM and 66.1 nM.
The like results for `COc1cccc2c1nc(N)n1nc([C@H]3C[C@H](c4ccc(C(C)(C)O)cc4)C3)nc21` [Ex-43, 2-(4-((1r,3r)-3-(5-amino-7-methoxy-[1,2,4]triazolo[1,5-c]quinazolin-2-yl)cyclobutyl)phenyl)propan-2-ol] were, in that order, 10.9 nM and 10.2 nM.
With `COc1cccc2c1nc(N)n1nc([C@@H]3C[C@H]3c3ccccc3)nc21` [Ex-34, 7-methoxy-2-[(1r,2r)-2-phenylcyclopropyl] [1,2,4]triazolo[1,5-c] quinazolin-5-amine], the IC50 came out at 0.1 nM in assay [1] and 18.2 nM in assay [2].
The like results for `COc1cccc2c1nc(N)n1nc(C3CC3c3ccc4nncn4c3)nc21` (stereo not shown) [Ex-13, 7-methoxy-2-[2-([1,2,4]triazolo[4,3-a]pyridin-6-yl)cyclopropyl][1,2,4] triazolo[1,5-c] quinazolin-5-amine] were, in that order, 3.3 nM and 152 nM.
The like results for `COc1cc(F)cc2c1nc(N)n1nc([C@H]3C[C@](O)(c4ccc(C(C)(C)O)nc4)C3)nc21` [Ex-139, (1s,3s)-3-(5-amino-9-fluoro-7-methoxy-[1,2,4]triazolo[1,5-c]quinazolin-2-yl)-1-(6-(2-hydroxypropan-2-yl)pyridin-3-yl)cyclobutan-1-ol] were, in that order, 35.9 nM and 2490 nM.
Consider `COc1cccc2c1nc(N)n1nc([C@H]3C[C@H](c4ncc(C(C)(C)N)cc4F)C3)nc21` [Ex-85, 2-{trans-3-[5-(2-aminopropan-2-yl)-3-fluoropyridin-2-yl]cyclobutyl}-7-methoxy[1,2,4]triazolo[1,5-c]quinazolin-5-amine], for which the IC50 came out at 2.7 nM in assay [1] and 1.3 nM in assay [2].

In general, IC50 refers to the concentration needed to halve the response being measured. Read a low IC50 as inhibition by little substance.
